{"source": "paper PMC11571207", "about": "“Stereorandomized Oncocins with Preserved Ribosome Binding and Antibacterial Activity” (Journal of Medicinal Chemistry, 2024)", "key": {"[1]": {"test_system": "A. baumannii ATCC19606", "test": "microbe, parasite or virus in culture", "settings": "for MIC A. baumannii ATCC19606: supplement CSV", "how_it_was_run": "(§1)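 Read-out was visible growth after MTT addition, the MIC being the lowest inhibitory peptide concentration. Bacteria grown to log phase in LB were exposed in MH medium to peptide from 64 μg/mL in twofold dilutions for 15-18h at 37°C.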"}, "[2]": {"test_system": "P. aeruginosa PAO1", "test": "microbe, parasite or virus in culture", "settings": "for MIC P. aeruginosa PAO1: supplement CSV", "how_it_was_run": "as §1"}, "[3]": {"test_system": "S. aureus COL (MRSA)", "test": "microbe, parasite or virus in culture", "settings": "for MIC S. aureus COL (MRSA): supplement CSV", "how_it_was_run": "as §1"}, "[4]": {"test_system": "E. coli W3110", "test": "microbe, parasite or virus in culture", "settings": "for MIC E. coli W3110: supplement CSV", "how_it_was_run": "as §1"}, "[5]": {"test_system": "K. pneumoniae NCTC 418", "test": "microbe, parasite or virus in culture", "settings": "for MIC K. pneumoniae NCTC418: supplement CSV", "how_it_was_run": "as §1"}, "[6]": {"test_system": "E. coli BW25113 sbmA::kan", "settings": "Table S1, sbmA::kan mutant, 16-20 h at 37 °C", "method": "(§2) Minimum inhibitory concentration assay\n(§3) Antimicrobial activity was assayed against P. aeruginosa PAO1, K. pneumoniae NCTC418, E. coli W3110, A. baumannii ATCC 19606, methicillin-resistant S. aureus COL (MRSA), and for selected peptides on P. aeruginosa PA14 and the polymyxin-B-resistant derivative PA14 2P4, as well as the clinical isolates ZEM-1A and ZEM9A, K. pneumoniae OXA-48, S. aureus Newman, Enterobacter cloacae and Burkholderia cenocepacia. The minimal inhibitory concentration (MIC) was determined by using broth microdilution method. A colo ny of bacteria was picked and grown in Luria-Bertani (LB) medium overnight at 37°C. For E. coli BW25113 sbmA::kan the medium was supplemented with 25 mg/L of kanamycin. The next day, the culture was then regrown in LB medium to log phase (OD600 = 0.6 to 0.8), which lasted approximately 4 h, and diluted to an OD600 of 0.022 in the desired medium. Stock solutions of 1 mg/mL of the samples were prepared in sterilized milliQ water and diluted to the beginning concentration of 64 μg/mL in 300 μL Mueller Hinton (MH)-medium. The diluted samples were added to first well of 96-well microtiter plate (TPP, untreated, Faust Laborbedarf, AG, Schaffhausen) and diluted serially by ½. Finally, 4 μL of the bacterial suspension was inoculated into the sample solutions (150 μL/well) with a final inoculation of about 5∙10^5 CFU/mL. The plates were then incubated at 37°C for 15-18h. For each assay, sterility (broth only) and growth control (broth with bacterial inoculum, without antibiotics) were checked with two columns in the plate. The next day, 15 μL of 3-(4,5-dimethylthiazol-2-yl)-2,5-diphenyltetrazolium bromide (MTT) was added to each well of the plate, such a way that MIC was defined as the lowest concentration of the peptide that inhibited visible growth of the tested […]\n(§4) Table S1. Activity of stereorandomized and diastereomeric oncocins against E. coli BW25113 WT and BW25113 sbmA::kan mutant in full and 12.5% MH, at pH 7.4. […]\n(§5) a) Minimum inhibitory concentration (MIC, μg/mL) was determined on E. coli BW25113 WT and […]"}, "[7]": {"test_system": "E. coli BW25113 WT", "settings": "Table S1, 16-20 h at 37 °C", "method": "as §2, §3, §4, §5"}, "[8]": {"test_system": "P. aeruginosa PA14 4.13 (phoQ)", "settings": "for MIC P. aeruginosa PA14 4.13: supplement CSV"}, "[9]": {"test_system": "K. pneumoniae OXA-48", "test": "microbe, parasite or virus in culture", "settings": "for MIC K. pneumoniae OXA-48: supplement CSV", "how_it_was_run": "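Minimal inhibitory concentrations come from broth microdilution in MH medium, with a top peptide concentration of 64 μg/mL halved serially.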"}, "[10]": {"settings": "12.5% Müller-Hinton medium pH 7.4"}, "[11]": {"settings": "full Müller-Hinton medium pH 7.4"}}, "note": "Where two headings read alike, the source gives them in different places. Non-standard residues stand in square brackets, D forms with d. Residues, ends and D or L forms follow the SMILES beside them."}
{"molecule": "CC[C@H](C)[C@H](NC(=O)[C@@H](CCCNC(=N)N)NC(=O)[C@H](CCCNC(=N)N)NC(=O)[C@@H]1CCCN1C(=O)[C@@H]1CCCN1C(=O)[C@H](CCCNC(=N)N)NC(=O)[C@@H]1CCCN1C(=O)[C@H](CCCNC(=N)N)NC(=O)[C@@H]1CCCN1C(=O)[C@H](CC(C)C)NC(=O)[C@H](Cc1ccc(O)cc1)NC(=O)[C@@H]1CCCN1C(=O)[C@@H]1CCCN1C(=O)[C@H](CCCCN)NC(=O)[C@H](CC(=O)O)NC(=O)[C@@H](N)C(C)C)C(=O)N[C@@H](Cc1ccc(O)cc1)C(=O)N[C@@H](CC(N)=O)C(=O)N[C@H](CCCNC(=N)N)C(N)=O", "note": "[Onc112, reference compound] (H-VDKPPYLPRPRPPR[dR]IYN[dR]-NH2)", "values": [{"measurement": "MIC A. baumannii, 12.5% MHB", "setting": "[1]; A. baumannii ATCC19606, 12.5% Müller–Hinton medium, 16–20 h at 37 °C", "result": 4, "unit": "µg/mL"}, {"measurement": "MIC A. baumannii, Full MHB", "setting": "[1]; A. baumannii ATCC19606, full Müller–Hinton medium, 16–20 h at 37 °C", "result": 32, "unit": "µg/mL"}, {"measurement": "MIC A. baumannii ATCC19606", "setting": "[1]; 12.5% MH pH 7.4", "result": 4, "unit": "µg/mL"}, {"measurement": "MIC A. baumannii ATCC19606", "setting": "[1]; full MH pH 7.4", "result": 32, "unit": "µg/mL"}, {"measurement": "MIC P. aeruginosa, 12.5% MHB", "setting": "[2]; P. aeruginosa PAO1, 12.5% Müller–Hinton medium, 16–20 h at 37 °C", "result": 4, "unit": "µg/mL"}, {"measurement": "MIC P. aeruginosa, Full MHB", "setting": "[2]; P. aeruginosa PAO1, full Müller–Hinton medium, 16–20 h at 37 °C", "result": 64, "unit": "µg/mL"}, {"measurement": "MIC P. aeruginosa PAO1", "setting": "[2]; 12.5% MH pH 7.4", "result": 4, "unit": "µg/mL"}, {"measurement": "MIC P. aeruginosa PAO1", "setting": "[2]; full MH pH 7.4", "result": 64, "unit": "µg/mL"}, {"measurement": "MIC S. aureus, 12.5% MHB", "setting": "[3]; S. aureus COL (MRSA), 12.5% Müller–Hinton medium, 16–20 h at 37 °C", "result": 32, "unit": "µg/mL"}, {"measurement": "MIC S. aureus, Full MHB", "setting": "[3]; S. aureus COL (MRSA), full Müller–Hinton medium, 16–20 h at 37 °C", "result": "> 64", "unit": "µg/mL"}, {"measurement": "MIC S. aureus COL (MRSA)", "setting": "[3]; 12.5% MH pH 7.4", "result": 32, "unit": "µg/mL"}, {"measurement": "MIC S. aureus COL (MRSA)", "setting": "[3]; full MH pH 7.4", "result": ">64", "unit": "µg/mL"}, {"measurement": "MIC E. coli, 12.5% MHB", "setting": "[4]; E. coli W3110, 12.5% Müller–Hinton medium, 16–20 h at 37 °C, broth microdilution", "result": 2, "unit": "µg/mL"}, {"measurement": "MIC E. coli, Full MHB", "setting": "[4]; E. coli W3110, full Müller–Hinton medium, 16–20 h at 37 °C, broth microdilution", "result": 4, "unit": "µg/mL"}, {"measurement": "MIC E. coli W3110", "setting": "[4]; 12.5% MH pH 7.4", "result": 2, "unit": "µg/mL"}, {"measurement": "MIC E. coli W3110", "setting": "[4]; full MH pH 7.4", "result": 4, "unit": "µg/mL"}, {"measurement": "MIC K. pneumoniae, 12.5% MHB", "setting": "[5]; K. pneumoniae NCTC 418, 12.5% Müller–Hinton medium, 16–20 h at 37 °C", "result": 2, "unit": "µg/mL"}, {"measurement": "MIC K. pneumoniae, Full MHB", "setting": "[5]; K. pneumoniae NCTC 418, full Müller–Hinton medium, 16–20 h at 37 °C", "result": 4, "unit": "µg/mL"}, {"measurement": "MIC K. pneumoniae NCTC418", "setting": "[5]; 12.5% MH pH 7.4", "result": 2, "unit": "µg/mL"}, {"measurement": "MIC K. pneumoniae NCTC418", "setting": "[5]; full MH pH 7.4", "result": 4, "unit": "µg/mL"}, {"measurement": "MIC E. coli BW25113 SbmA-, 12.5% MH", "setting": "[6]; [10]", "result": 4, "unit": "µg/mL"}, {"measurement": "MIC E. coli BW25113 SbmA-, Full MH", "setting": "[6]; [11]", "result": "> 64", "unit": "µg/mL"}, {"measurement": "MIC E. coli BW25113 WT, 12.5% MH", "setting": "[7]; [10]", "result": 4, "unit": "µg/mL"}, {"measurement": "MIC E. coli BW25113 WT, Full MH", "setting": "[7]; [11]", "result": 16, "unit": "µg/mL"}, {"measurement": "MIC P. aeruginosa PA14 4.13 (phoQ), 12.5% MHB", "setting": "[8]; polymyxin B resistant strain, 12.5% MHB pH 7.4, 16–20 h at 37 °C", "result": 16, "unit": "µg/mL"}, {"measurement": "MIC P. aeruginosa PA14 4.13 (phoQ), full MHB", "setting": "[8]; polymyxin B resistant strain, full MHB pH 7.4, 16–20 h at 37 °C", "result": "> 32", "unit": "µg/mL"}, {"measurement": "MIC P. aeruginosa PA14 4.13", "setting": "[8]; 12.5% MH pH 7.4", "result": 16, "unit": "µg/mL"}, {"measurement": "MIC P. aeruginosa PA14 4.13", "setting": "[8]; full MH pH 7.4", "result": ">32", "unit": "µg/mL"}, {"measurement": "MIC K. pneumoniae OXA-48, 12.5% MHB", "setting": "[9]; carbapenem-resistant, 12.5% MHB pH 7.4, 16–20 h at 37 °C", "result": 1, "unit": "µg/mL"}, {"measurement": "MIC K. pneumoniae OXA-48, full MHB", "setting": "[9]; carbapenem-resistant, full MHB pH 7.4, 16–20 h at 37 °C", "result": 8, "unit": "µg/mL"}, {"measurement": "MIC K. pneumoniae OXA-48", "setting": "[9]; 12.5% MH pH 7.4", "result": 1, "unit": "µg/mL"}, {"measurement": "MIC K. pneumoniae OXA-48", "setting": "[9]; full MH pH 7.4", "result": 8, "unit": "µg/mL"}]}
